Measured values: patent US10000484B2, “Inhibitors of the renal outer medullary potassim channel” (MERCK SHARP & DOHME CORP., priority 2013, dated 2018)

The molecules below were run against T1, hROMK (hKir1.1) (Homo sapiens, UniProt P48048) (assay: Thallium Flux Assay (ROMK channel functional thallium flux assay, FLIPR-Tetra)). Details: HEK293 cells stably expressing hROMK; 30 min incubation with compound.
T1 construct: expressed in transfected cells
T1 sequence (P48048 1-391): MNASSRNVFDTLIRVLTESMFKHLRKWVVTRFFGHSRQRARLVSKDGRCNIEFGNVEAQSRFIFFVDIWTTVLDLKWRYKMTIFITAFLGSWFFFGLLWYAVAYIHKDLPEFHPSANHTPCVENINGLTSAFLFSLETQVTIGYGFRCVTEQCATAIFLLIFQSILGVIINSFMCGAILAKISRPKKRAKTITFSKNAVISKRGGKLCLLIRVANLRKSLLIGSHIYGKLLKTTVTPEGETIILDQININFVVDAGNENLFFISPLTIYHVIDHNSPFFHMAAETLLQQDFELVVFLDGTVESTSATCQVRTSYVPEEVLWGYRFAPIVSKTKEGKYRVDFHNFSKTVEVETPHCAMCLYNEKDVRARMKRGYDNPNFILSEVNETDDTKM
Type: cell-based
Protocol: The following Thallium Flux Assay was performed on each of the final product compounds in the Examples. When the final product of an Example was an HCl salt, the salt was run in the Assay.
HEK293 cells stably expressing hROMK (hKir1.1) were grown at 37° C. in a 10% CO2 humidified incubator in complete growth media: Dulbecco's Modified Eagle Medium supplemented with non-essential amino acids, Penicillin/Streptomycin/Glutamine, G418 and FBS. At >80% confluency, aspirate the media from the flask and rinse with 10 mL Calcium/Magnesium-free PBS. Add 5 mL of 1× trypsin (prepared in Ca/Mg Free PBS) to T-225 flask and return flask to 37° C./CO2 incubator for 2-3 minutes. To dislodge the cell, gently bang the side of the flask with your hand. Triturate the cells completely and then transfer the cells to 25 mL complete media. Centrifuge at 1,500 rpm for 6 min followed by resuspension in complete growth media and determine cell concentration. For typical re-seeding, 4E6 cells/T-225 flask will attain >80% confluency in 4 days. Under ideal growth conditions and appropriate tissue culture practices, this cell line is stable for 40-45 passages.
FluxOR Kit Components (Invitrogen F10017)
• FluxOR™ Reagent (Component A) • FluxOR™ Assay Buffer (Component B)—10× Concentrate • PowerLoad™ Concentrate (Component C)—100× Concentrate • Probenecid (Component D)—Lyophilized sample is kept at −20° C. Water soluble, 100× after solubilization in 1 mL water. Store at 4° C. • FluxOR™ Chloride-free Buffer (Component E)—5× Concentrate • Potassium sulfate (K2SO4) Concentrate (Component F)—125 mM in water. Store at 4° C. • Thallium sulfate (Tl2SO4) Concentrate (Component G)—50 mM in water. Store at 4° C. • DMSO (dimethyl sulfoxide, Component H)—1 mL (100%) Reagent Preparation: FluxOR Working Solutions • 1000× FluxOR™ Reagent: Reconstitute a vial of component A in 100 μl DMSO; Mix well; Store 10 μl aliquots at −20° C. • 1× FluxOR™ Assay Buffer: Dilute Component B 10-fold with water; Adjust pH to 7.4 with Hepes/NaOH; Filter and store at 4° C. • Probenecid/Assay Buffer: 100 mL of 1× FluxOR™ Assay Buffer; 1 mL of reconstituted component D; Store at 4° C. • Loading Buffer (per microplate): 10 μl 1000× FluxOR™ Reagent; 100 μl component C; 10 mL Probenecid/Assay Buffer • Compound Buffer (per microplate): 20 mL Probenecid/Assay Buffer; 0.3 mM ouabain (10 mM ouabain in water can be stored in amber bottle/aluminum foil at room temperature); Test compound • 1× FluxOR™ Chloride-Free Buffer: Prepare 1× working solution in water. Can be stored at room temperature • Stimulant Buffer (prepared at 5× final concentration in 1× FluxOR™ Chloride-Free Buffer): 7.5 mM Thallium sulfate and 0.75 mM Potassium sulfate (to give a final assay concentration of 3 mM Thallium/0.3 mM Potassium). Store at 4° C. when not in use. Assay Protocol—
The ROMK channel functional thallium flux assay is performed in 384 wells, using the FLIPR-Tetra instrument. HEK-hKir1.1 cells are seeded in Poly-D-Lysine microplates and kept in a 37° C.-10% CO2 incubator overnight. On the day of the experiment, the growth media is replaced with the FluxOR™ reagent loading buffer and incubated, protected from light, at ambient temperature (23-25° C.) for 90 min. The loading buffer is replaced with assay buffer±test compound followed by 30 min incubation at ambient temperature, where the Thallium/Potassium stimulant is added to the microplate.
1. Seed HEK-hKir1.1 cells (50 μl at 20,000 cells/well) in 384-well PDL coated Microplates
2. Allow cells to adhere overnight in humidified 37° C./10% CO2 incubator
3. Completely remove cell growth media from microplate and replace with 25 μl loading buffer
4. Incubate Microplate at room temperature, protected form light, for 90 min
5. Remove loading buffer and replace with 25 μl 1× Assay Buffer±test compound.
6. Incubate microplate at room temperature, protected from light, for 30 min
7. At FLIPR-Tetra 384: Add stimulant (Thallium/Potassium) solution to microplate and monitor fluorescence. […]

| SMILES | IC50 [nM] |
| --- | --- |
| Cc1c([C@@H](O)CN2CCc3c(-c4ccc(C#N)c(F)c4)n[nH]c3C2)ccc2c1COC2=O [Example 42, 3-(4-cyano-3-fluorophenyl)-6-((R)-2-hydroxy-2-(4-methyl-1-oxo-1,3-dihydroisobenzofuran-5-yl)ethyl)-4,5,6,7-tetrahydro-1H-pyrazolo[3,4-c]pyridine] | 173 |
| Cc1c([C@@H](O)CN2CCn3c(-c4ccc5c(c4)C[C@H](C)OC5=O)cnc3C2)ccc2c1COC2=O [Example 44, (3S)-6-{7-[(2R)-2-hydroxy-2-(4-methyl-1-oxo-1,3-dihydro-2-benzofuran-5-yl)ethyl]-5,6,7,8-tetrahydroimidazo[1,2-a]pyrazin-3-yl}-3-methyl-3,4-dihydro-1H-isochromen-1-one] | 301 |
| Cc1c(C(O)CN2CCc3nc(-c4ccc(C#N)cc4F)ncc3C2)ccc2c1COC2=O (centres unmarked) [Example 41, 3-fluoro-4-{6-[2-hydroxy-2-(4-methyl-1-oxo-1,3-dihydro-2-benzofuran-5-yl)ethyl]-5,6,7,8-tetrahydropyrido[4,3-d]pyrimidin-2-yl}benzonitrile] | 463 |
| Cc1c(C(O)CN2CCn3cc(-c4ccc5c(c4)COC5=O)nc3C2)ccc2c1COC2=O (centres unmarked) [Example 34, 5-{1-hydroxy-2-[2-(1-oxo-1,3-dihydro-2-benzofuran-5-yl)-5,6-dihydroimidazo[1,2-a]pyrazin-7(8H)-yl]ethyl}-4-methyl-2-benzofuran-1(3H)-one] | 99.4 |
| Cc1c(CCN2CC[C@@H]3[C@@H](C2)OC(=O)N3Cc2ccc3c(c2C)COC3=O)ccc2c1COC2=O [Example 29] | 201 |
| O=C1OCCc2cc(CCN3CCn4cc(-c5ccc6c(c5)COC6=O)nc4C3)ccc21 [Example 20, 6-{2-[2-(1-oxo-1,3-dihydro-2-benzofuran-5-yl)-5,6-dihydroimidazo[1,2-a]pyrazin-7(8H)-yl]ethyl}-3,4-dihydro-1H-isochromen-1-one] | 192 |
| Cc1c(CCN2CCn3cc(-c4ccc5c(c4)COC5=O)nc3C2)ccc2c1COC2=O [Example 13, 4-methyl-5-{2-[2-(1-oxo-1,3-dihydro-2-benzofuran-5-yl)-5,6-dihydroimidazo[1,2-a]pyrazin-7(8H)-yl]ethyl}-2-benzofuran-1(3H)-one] | 134 |
| Cc1c(CCN2CCn3c(nn(-c4ccc(C#N)c(F)c4)c3=O)C2)ccc2c1COC2=O [Example 24, 2-fluoro-4-{7-[2-(4-methyl-1-oxo-1,3-dihydro-2-benzofuran-5-yl)ethyl]-3-oxo-5,6,7,8-tetrahydro[1,2,4]triazolo[4,3-a]pyrazin-2(3H)-yl}benzonitrile] | 177 |
| Cc1c([C@@H](O)CN2CCc3cc(-c4ccc5c(c4)C[C@H](C)OC5=O)ccc3C2)ccc2c1COC2=O [Example 47, 2-[(2R)-2-hydroxy-2-(4-methyl-1-oxo-1,3-dihydro-2-benzofuran-5-yl)ethyl]-6-[(3S)-3-methyl-1-oxo-3,4-dihydro-1H-isochromen-6-yl]-1,2,3,4-tetrahydroisoquinoline] | 249 |
| COc1cc(-c2cn3c(n2)CN(CC(O)c2ccc4c(c2C)COC4=O)CC3)ccc1C#N (centres unmarked) [Example 35, 4-{7-[2-hydroxy-2-(4-methyl-1-oxo-1,3-dihydro-2-benzofuran-5-yl)ethyl]-5,6,7,8-tetrahydroimidazo[1,2-a]pyrazin-2-yl}-2-methoxybenzonitrile] | 154 |
| Cc1cc(C#N)ccc1C1C[C@H]2CN(C[C@H](O)c3ccc4c(c3C)COC4=O)CCN2C1 (stereo partly drawn) [Example 45, 4-{(8aS)-2-[(2R)-2-hydroxy-2-(4-methyl-1-oxo-1,3-dihydro-2-benzofuran-5-yl)ethyl]octahydropyrrolo[1,2-a]pyrazin-7-yl}-3-methylbenzonitrile] | 131 |
| Cc1c(CCN2CCc3nc(-c4ccc(-n5cnnn5)cc4)ncc3C2)ccc2c1COC2=O [Example 7, 6-[2-(4-methyl-1-oxo-1,3-dihydro-2-benzofuran-5-yl)ethyl]-2-[4-(1H-tetrazol-1-yl)phenyl]-5,6,7,8-tetrahydropyrido[4,3-d]pyrimidine-1,6-diium] | 168 |

Molecules with a lower IC50, results first:

| IC50 [nM] | SMILES |
| --- | --- |
| 92.8 | Cc1c(CCN2CCn3c(nn(-c4ccc5c(c4)COC5=O)c3=O)C2)ccc2c1COC2=O [Example 25, 7-[2-(4-methyl-1-oxo-1,3-dihydro-2-benzofuran-5-yl)ethyl]-2-(1-oxo-1,3-dihydro-2-benzofuran-5-yl)-5,6,7,8-tetrahydro[1,2,4]triazolo[4,3-a]pyrazin-3(2H)-one] |
| 83.8 | COc1cc(-c2ncc3c(n2)CCN(CCc2ccc4c(c2C)COC4=O)C3)ccc1C#N [Example 11, 2-methoxy-4-{6-[2-(4-methyl-1-oxo-1,3-dihydro-2-benzofuran-5-yl)ethyl]-5,6,7,8-tetrahydropyrido[4,3-d]pyrimidin-2-yl}benzonitrile] |
| 81.4 | Cc1c([C@@H](O)CN2CCN3CC(c4ccc5c(c4)C[C@@H](C)OC5=O)C[C@H]3C2)ccc2c1COC2=O (stereo partly drawn) [Example 46, (3R)-6-{(8aS)-2-[(2R)-2-hydroxy-2-(4-methyl-1-oxo-1,3-dihydro-2-benzofuran-5-yl)ethyl]octahydropyrrolo[1,2-a]pyrazin-7-yl}-3-methyl-3,4-dihydro-1H-isochromen-1-one] |
| 74 | O=C1OCc2cc(CCN3CCc4nc(-c5ccc(-n6cnnn6)cc5)ncc4C3)ccc21 [Example 6, 6-[2-(1-oxo-1,3-dihydro-2-benzofuran-5-yl)ethyl]-2-[4-(1H-tetrazol-1-34)phenyl]-5,6,7,8-tetrahydropyrido[4,3-d]pyrimidine-1,6-diium] |
| 67 | Cc1c(C(O)CN2CCc3c(cnn3-c3ccc4c(c3)COC4=O)C2)ccc2c1COC2=O (centres unmarked) [Example 33, 5-{1-hydroxy-2-[1-(1-oxo-1,3-dihydro-2-benzofuran-5-yl)-1,4,6,7-tetrahydro-5H-pyrazolo[4,3-c]pyridin-5-yl]ethyl}-4-methyl-2-benzofuran-1(3H)-one] |
| 64 | CC1=C(N2CC3=C(CCN(C[C@H](O)c4ccc5c(c4C)COC5=O)CC3)C2=O)COC1=O [Example 31, (R)-6-(2-Hydroxy-2-(4-methyl-1-oxo-1,3-dihydroisobenzofuran-5-yl)ethyl)-2-(4-methyl-5-oxo-2,5-dihydrofuran-3-yl)-2,3,5,6,7,8-hexahydropyrrolo[3,4-d]azepin-1(4H)-one] |
| 43.8 | N#Cc1ccc(-n2cc3c(n2)CCN(CCc2ccc4c(c2)COC4=O)C3)cc1 [Example 5, 4-{5-[2-(1-oxo-1,3-dihydro-2-benzofuran-5-yl)ethyl]-4,5,6,7-tetrahydro-2H-pyrazolo[4,3-c]pyridin-2-yl}benzonitrile] |
| 27.5 | Cc1c(CCN2CCc3c(cnn3-c3ccc(C#N)c(F)c3)C2)ccc2c1COC2=O [Example 30, 2-fluoro-4-(5-(2-(4-methyl-1-oxo-1,3-dihydroisobenzofuran-5-yl)ethyl)-4,5,6,7-tetrahydro-1H-pyrazolo[4,3-c]pyridin-1-yl)benzonitrile] |
